These results are taken from ChEMBL document CHEMBL5291721, “A preclinical secondary pharmacology resource illuminates target-adverse drug reaction associations of marketed drugs” (Nat Commun, 2023).

Molecules are shown by their SMILES. *1 amine or outer side, *2 acyl side, *3 side chain or, on linkers, in order; H or OH if unused. Where a SMILES comes first, the peptide text is derived from it. Bridges are numbered along the chain shown (N, C = ends). [ ]: non-standard residue; d: D form. The star is where a group is joined. hTyr(3S-OH,4S-OH,3'-OSO3H) = N[C@H](C(=O)O)[C@H](O)[C@@H](O)c1ccc(O)c(OS(=O)(=O)O)c1; Orn(4R-OH,5R-OH) = O=C([C@H](C[C@@H](O)[C@@H](O)N[*:3])N[*:1])[*:2]; Pro(3S-OH,4S-Me) = C[C@H]1CN[C@H](C(=O)O)[C@H]1O; X1 = CCCCCOc1ccc(-c2cc(-c3ccc(C(=O)*)cc3)no2)cc1; Gln(3R-OH) = NC(=O)C[C@@H](O)[C@H](N)C(=O)O; Hyp = O=C(O)[C@@H]1C[C@@H](O)CN1

The target in one experiment is T1, Adenosine receptor A3 (Homo sapiens, UniProt P0DMS8).
T1 sequence (P0DMS8 whole entry): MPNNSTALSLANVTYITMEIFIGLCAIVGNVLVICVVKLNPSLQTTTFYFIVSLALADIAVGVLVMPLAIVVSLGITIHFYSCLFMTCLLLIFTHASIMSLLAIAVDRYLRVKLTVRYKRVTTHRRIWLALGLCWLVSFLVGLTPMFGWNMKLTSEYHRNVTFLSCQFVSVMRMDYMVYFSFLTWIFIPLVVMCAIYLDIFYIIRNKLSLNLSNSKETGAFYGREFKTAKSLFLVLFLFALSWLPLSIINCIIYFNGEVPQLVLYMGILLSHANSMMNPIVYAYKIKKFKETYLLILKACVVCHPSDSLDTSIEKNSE

The target in experiment [1] is Sodium-dependent serotonin transporter (Homo sapiens, UniProt P31645).
Sodium-dependent serotonin transporter, sequence (P31645 whole entry): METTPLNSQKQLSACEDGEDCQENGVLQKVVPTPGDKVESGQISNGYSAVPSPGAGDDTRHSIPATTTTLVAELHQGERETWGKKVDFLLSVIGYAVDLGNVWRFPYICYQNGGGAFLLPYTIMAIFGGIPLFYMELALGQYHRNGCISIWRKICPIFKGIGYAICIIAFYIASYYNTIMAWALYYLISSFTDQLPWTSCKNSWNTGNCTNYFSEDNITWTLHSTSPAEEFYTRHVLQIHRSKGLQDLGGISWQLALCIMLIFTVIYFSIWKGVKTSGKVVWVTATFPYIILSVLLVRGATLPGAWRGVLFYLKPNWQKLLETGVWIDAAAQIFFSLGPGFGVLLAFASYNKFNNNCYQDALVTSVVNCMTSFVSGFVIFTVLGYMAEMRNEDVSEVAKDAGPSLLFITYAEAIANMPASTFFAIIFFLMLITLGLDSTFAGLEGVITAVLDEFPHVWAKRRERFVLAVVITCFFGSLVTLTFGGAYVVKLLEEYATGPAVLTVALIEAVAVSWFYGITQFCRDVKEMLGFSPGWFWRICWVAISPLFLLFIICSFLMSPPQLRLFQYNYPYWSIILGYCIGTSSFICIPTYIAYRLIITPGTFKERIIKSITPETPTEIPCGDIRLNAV
The target of experiment [2] is T2, Muscarinic acetylcholine receptor M2 (Homo sapiens, UniProt P08172).
T2 sequence (P08172 whole entry): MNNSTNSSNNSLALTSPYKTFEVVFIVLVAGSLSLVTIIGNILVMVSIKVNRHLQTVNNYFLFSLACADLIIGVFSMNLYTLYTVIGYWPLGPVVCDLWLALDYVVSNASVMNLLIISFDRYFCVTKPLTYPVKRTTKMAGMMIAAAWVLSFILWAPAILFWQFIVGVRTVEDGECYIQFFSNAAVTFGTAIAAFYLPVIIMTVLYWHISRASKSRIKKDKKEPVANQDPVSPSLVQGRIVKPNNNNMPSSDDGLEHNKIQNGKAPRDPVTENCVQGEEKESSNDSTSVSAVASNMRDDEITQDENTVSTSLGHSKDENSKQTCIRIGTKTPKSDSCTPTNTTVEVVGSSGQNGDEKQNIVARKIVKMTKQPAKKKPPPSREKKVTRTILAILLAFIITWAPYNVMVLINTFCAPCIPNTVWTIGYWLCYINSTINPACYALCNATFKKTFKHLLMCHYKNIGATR
The class given is functional, cell-based.

In experiment [3] the target is Sodium-dependent dopamine transporter (Homo sapiens, UniProt Q01959).
Sodium-dependent dopamine transporter, sequence (Q01959 whole entry): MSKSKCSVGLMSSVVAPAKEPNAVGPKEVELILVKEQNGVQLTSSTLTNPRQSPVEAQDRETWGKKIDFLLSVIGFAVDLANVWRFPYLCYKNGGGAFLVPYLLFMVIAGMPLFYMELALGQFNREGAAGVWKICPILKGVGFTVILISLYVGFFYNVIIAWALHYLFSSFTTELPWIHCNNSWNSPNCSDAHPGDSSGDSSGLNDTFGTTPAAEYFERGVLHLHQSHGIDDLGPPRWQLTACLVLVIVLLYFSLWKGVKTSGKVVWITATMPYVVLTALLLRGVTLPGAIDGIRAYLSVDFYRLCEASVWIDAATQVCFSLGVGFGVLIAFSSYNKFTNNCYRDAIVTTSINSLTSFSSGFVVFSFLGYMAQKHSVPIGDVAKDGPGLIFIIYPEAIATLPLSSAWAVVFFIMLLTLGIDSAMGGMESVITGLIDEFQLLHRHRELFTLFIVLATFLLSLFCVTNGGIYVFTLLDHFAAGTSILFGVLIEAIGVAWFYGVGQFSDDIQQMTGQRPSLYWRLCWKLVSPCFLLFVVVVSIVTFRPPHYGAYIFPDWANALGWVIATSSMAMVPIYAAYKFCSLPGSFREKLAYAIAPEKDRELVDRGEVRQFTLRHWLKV
The next experiment has as its target Histamine H2 receptor (Homo sapiens, UniProt P25021). The format is functional, cell-based.
Experiment [4] has as its target Kappa-type opioid receptor (Homo sapiens, UniProt P41145).
The target of experiment [5] is Gamma-aminobutyric acid receptor subunit alpha-1 (Rattus norvegicus, UniProt P62813). The format is functional.
Gamma-aminobutyric acid receptor subunit alpha-1, sequence (P62813 whole entry): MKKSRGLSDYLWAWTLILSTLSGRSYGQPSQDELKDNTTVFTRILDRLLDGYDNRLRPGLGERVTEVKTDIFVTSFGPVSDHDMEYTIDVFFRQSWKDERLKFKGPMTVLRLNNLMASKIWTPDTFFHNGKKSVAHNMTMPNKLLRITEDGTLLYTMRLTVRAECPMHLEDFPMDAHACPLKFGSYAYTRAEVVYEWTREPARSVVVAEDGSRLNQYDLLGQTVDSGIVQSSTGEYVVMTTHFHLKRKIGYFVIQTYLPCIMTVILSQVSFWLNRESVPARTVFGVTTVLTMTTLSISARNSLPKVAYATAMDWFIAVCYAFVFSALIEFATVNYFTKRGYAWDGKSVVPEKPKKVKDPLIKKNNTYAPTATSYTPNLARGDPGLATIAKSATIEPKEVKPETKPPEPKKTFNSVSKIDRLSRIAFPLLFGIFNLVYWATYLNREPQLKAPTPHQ
The target in experiment [6] is Glutamate receptor ionotropic, NMDA 1 (Rattus norvegicus, UniProt P35439).
Experiment [7] deals with cGMP-inhibited 3',5'-cyclic phosphodiesterase 3A (Homo sapiens, UniProt Q14432). The class given is functional.
cGMP-inhibited 3',5'-cyclic phosphodiesterase 3A, sequence (Q14432 whole entry): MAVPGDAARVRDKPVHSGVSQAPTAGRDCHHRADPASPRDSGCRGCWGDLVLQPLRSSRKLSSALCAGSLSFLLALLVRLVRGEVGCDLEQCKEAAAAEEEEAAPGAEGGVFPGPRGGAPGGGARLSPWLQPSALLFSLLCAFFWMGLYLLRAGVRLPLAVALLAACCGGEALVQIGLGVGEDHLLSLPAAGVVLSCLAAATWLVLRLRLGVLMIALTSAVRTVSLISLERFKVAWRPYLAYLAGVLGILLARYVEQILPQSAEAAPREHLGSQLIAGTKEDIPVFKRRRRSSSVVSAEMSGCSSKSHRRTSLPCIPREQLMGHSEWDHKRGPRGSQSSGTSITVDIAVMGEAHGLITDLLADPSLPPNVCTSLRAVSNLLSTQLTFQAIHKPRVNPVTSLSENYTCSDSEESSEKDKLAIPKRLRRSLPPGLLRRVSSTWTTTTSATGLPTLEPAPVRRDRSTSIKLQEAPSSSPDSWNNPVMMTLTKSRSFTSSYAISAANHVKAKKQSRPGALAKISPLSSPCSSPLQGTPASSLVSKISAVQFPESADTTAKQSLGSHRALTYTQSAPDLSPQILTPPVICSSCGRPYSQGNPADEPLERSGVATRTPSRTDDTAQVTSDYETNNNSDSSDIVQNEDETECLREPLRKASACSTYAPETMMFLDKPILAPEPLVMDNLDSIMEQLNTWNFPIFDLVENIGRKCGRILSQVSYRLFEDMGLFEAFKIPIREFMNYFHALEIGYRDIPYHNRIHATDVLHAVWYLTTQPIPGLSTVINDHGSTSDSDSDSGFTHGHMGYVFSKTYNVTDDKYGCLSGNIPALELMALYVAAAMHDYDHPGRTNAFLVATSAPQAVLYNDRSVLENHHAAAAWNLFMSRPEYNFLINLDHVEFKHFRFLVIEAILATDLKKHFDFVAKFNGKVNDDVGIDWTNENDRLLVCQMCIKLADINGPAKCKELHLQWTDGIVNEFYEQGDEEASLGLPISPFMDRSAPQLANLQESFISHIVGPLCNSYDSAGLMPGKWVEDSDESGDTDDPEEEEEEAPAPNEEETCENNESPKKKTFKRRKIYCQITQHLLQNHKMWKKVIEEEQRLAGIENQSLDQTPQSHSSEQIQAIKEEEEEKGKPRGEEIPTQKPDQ
The target of experiment [8] is T3, Alpha-2A adrenergic receptor (Homo sapiens, UniProt P08913).
T3 sequence (P08913 whole entry): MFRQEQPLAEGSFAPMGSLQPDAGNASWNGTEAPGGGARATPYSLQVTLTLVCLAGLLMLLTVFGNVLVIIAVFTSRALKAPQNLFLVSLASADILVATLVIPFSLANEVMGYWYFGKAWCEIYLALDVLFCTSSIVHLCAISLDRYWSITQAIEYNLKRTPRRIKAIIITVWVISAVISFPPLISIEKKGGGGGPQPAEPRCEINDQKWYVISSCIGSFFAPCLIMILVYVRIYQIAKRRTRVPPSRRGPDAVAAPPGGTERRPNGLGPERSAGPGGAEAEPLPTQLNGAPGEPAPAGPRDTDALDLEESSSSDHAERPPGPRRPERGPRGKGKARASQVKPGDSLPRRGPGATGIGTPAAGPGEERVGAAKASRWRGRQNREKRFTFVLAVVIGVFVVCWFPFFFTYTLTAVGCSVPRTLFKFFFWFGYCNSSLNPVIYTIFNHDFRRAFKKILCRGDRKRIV
The format is functional, cell-based.

The next experiment deals with T4, B2 bradykinin receptor (Homo sapiens, UniProt P30411).
T4 sequence (P30411 whole entry): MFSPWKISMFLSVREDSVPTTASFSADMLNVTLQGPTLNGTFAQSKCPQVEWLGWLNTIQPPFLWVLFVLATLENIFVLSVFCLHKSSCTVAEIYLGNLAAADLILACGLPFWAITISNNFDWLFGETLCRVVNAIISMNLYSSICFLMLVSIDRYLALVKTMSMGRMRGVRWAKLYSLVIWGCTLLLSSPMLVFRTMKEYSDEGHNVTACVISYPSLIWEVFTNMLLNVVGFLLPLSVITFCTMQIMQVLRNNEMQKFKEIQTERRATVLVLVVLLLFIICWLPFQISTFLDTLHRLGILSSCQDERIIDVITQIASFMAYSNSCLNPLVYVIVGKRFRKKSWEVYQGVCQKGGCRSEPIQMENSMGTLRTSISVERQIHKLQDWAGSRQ

A further experiment concerns the target Histamine H3 receptor (Homo sapiens, UniProt Q9Y5N1).
Also: assay procedure not described here.

Kappa-type opioid receptor, sequence (P41145 whole entry): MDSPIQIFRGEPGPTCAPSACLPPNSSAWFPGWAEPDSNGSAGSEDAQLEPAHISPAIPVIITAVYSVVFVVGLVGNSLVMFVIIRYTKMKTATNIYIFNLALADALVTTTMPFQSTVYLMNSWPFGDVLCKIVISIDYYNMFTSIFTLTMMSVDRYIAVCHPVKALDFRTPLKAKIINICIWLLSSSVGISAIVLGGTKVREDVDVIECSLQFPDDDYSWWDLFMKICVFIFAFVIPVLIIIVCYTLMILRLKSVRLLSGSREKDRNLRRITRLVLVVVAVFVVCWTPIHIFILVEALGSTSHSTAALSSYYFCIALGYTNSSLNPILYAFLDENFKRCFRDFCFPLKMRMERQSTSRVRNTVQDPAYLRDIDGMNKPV
Histamine H2 receptor, sequence (P25021 whole entry): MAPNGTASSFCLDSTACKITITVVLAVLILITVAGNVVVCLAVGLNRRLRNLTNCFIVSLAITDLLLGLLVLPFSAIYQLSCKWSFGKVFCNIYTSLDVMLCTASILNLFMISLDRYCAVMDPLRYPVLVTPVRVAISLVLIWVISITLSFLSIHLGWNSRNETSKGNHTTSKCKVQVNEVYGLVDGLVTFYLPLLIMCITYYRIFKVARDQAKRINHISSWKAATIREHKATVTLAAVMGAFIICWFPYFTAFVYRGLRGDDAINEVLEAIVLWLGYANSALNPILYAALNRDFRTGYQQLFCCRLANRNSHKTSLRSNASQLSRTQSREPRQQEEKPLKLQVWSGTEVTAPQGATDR
Histamine H3 receptor, sequence (Q9Y5N1 whole entry): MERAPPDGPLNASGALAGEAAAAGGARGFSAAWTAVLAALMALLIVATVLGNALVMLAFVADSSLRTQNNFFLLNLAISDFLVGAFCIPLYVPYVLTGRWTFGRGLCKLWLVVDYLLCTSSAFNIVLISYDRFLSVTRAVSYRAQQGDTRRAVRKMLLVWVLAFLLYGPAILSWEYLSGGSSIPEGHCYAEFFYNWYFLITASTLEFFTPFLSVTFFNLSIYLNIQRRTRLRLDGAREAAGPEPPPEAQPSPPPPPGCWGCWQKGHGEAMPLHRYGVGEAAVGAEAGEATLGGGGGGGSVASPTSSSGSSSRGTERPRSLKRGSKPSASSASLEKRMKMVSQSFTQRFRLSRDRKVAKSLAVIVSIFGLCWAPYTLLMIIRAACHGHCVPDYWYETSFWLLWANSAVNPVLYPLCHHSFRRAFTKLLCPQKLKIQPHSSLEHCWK

As for `CN1CCC[C@@H]1Cc1c[nH]c2ccc(CCS(=O)(=O)c3ccccc3)cc12`, the AC50 (at Adenosine receptor A3; in experiment [1]) was > 30 µM each time.
Turning to `COc1nccnc1NS(=O)(=O)c1ccc(N)cc1`, the AC50 (on Adenosine receptor A3; in [1]) was > 30 µM throughout.
Turning to `NC(=O)c1nc(F)c[nH]c1=O`, the concentration at half-maximal activity (AC50) (on Adenosine receptor A3; in experiment [1]) was > 30 µM throughout.
In the case of `O=C(O)COc1nn(Cc2ccccc2)c2ccccc12` [BENDAZAC], the AC50 (on Adenosine receptor A3; in experiment [1]) was > 30 µM in each case.
For `Cc1ccc([C@@H]2O[C@H](CO)[C@@H](O)[C@H](O)[C@H]2O)cc1Cc1ccc(-c2ccc(F)cc2)s1` [CANAGLIFLOZIN ANHYDROUS], the figures for the half-maximal activity concentration (AC50) (on Adenosine receptor A3; in [1]) were 18.4 µM and 26.1 µM, respectively.
For the compound `CN(C)CCN(Cc1ccc(Cl)cc1)c1ccccn1` [CHLOROPYRAMINE], the AC50 on Adenosine receptor A3 was > 30 µM; in experiment [1], 0.0202 µM.
The matching figures for `O=C(O)c1cc(=O)c2ccccc2o1` [CHROMOCARB]: > 30 µM and > 30 µM.
Consider `CN(CC(=O)O)C(=N)N` [CREATINE], for which the AC50 (at Adenosine receptor A3; in experiment [1]) was > 30 µM throughout.
With `N[C@@H](CSSC[C@H](N)C(=O)O)C(=O)O` [CYSTINE], the AC50 (at Adenosine receptor A3; in experiment [1]) was > 30 µM throughout.
For the compound `C[C@]12CC[C@@H]3c4ccc(O)cc4CC[C@H]3[C@@H]1CC[C@@H]2OC(=O)CCC1CCCC1` [ESTRADIOL CYPIONATE], the AC50 on Adenosine receptor A3 is 9.98 µM; in experiment [1], > 30 µM.
Regarding `C[C@]12CCC(=O)C=C1CC[C@@H]1[C@@H]2[C@@H](O)C[C@@]2(C)[C@H]1CC[C@]2(O)C(=O)COC(=O)CCC(=O)O` [HYDROCORTISONE HEMISUCCINATE ANHYDROUS], the half-maximal activity concentration (AC50) (on Adenosine receptor A3; in experiment [1]) was > 30 µM in each case.
In the case of `N=C(N)NCc1cccc([123I])c1` [IOBENGUANE I 123], the AC50 (on Adenosine receptor A3; in [1]) was > 30 µM each time.
On to `C=C1c2c(Cl)ccc(O)c2C(=O)C2=C(O)[C@]3(O)C(=O)C(C(N)=O)=C(O)[C@@H](N(C)C)[C@@H]3[C@@H](O)[C@H]12` [MECLOCYCLINE], for which the AC50 (at Adenosine receptor A3; in experiment [1]) was > 30 µM throughout.
`Cc1cc2c(OCC(O)CNC(C)C)cccc2[nH]1` (centres undefined) [MEPINDOLOL]: the concentration at half-maximal activity (AC50) (on Adenosine receptor A3; in experiment [1]) was > 30 µM each time.
On to `CC(=O)/N=c1/sc(S(N)(=O)=O)nn1C` [METHAZOLAMIDE], for which the AC50 (in experiment [2]; in experiment [3]; at Histamine H2 receptor; in [4]; in [5]; in [6]) was > 10 µM each time. For the same compound, the AC50 at Adenosine receptor A3 is > 30 µM; in experiment [1], > 30 µM; in experiment [7], > 30 µM; in experiment [8], > 10 µM; on B2 bradykinin receptor, > 10 µM.
In the case of `CCCCCOc1ccc(-c2cc(-c3ccc(C(=O)N[C@H]4C[C@@H](O)[C@@H](O)NC(=O)[C@@H]5[C@@H](O)[C@@H](C)CN5C(=O)[C@H]([C@H](O)CC(N)=O)NC(=O)[C@H]([C@H](O)[C@@H](O)c5ccc(O)c(OS(=O)(=O)O)c5)NC(=O)[C@@H]5C[C@@H](O)CN5C(=O)[C@H]([C@@H](C)O)NC4=O)cc3)no2)cc1` [MICAFUNGIN] (X1-[Orn(4R-OH,5R-OH)]T[Hyp][hTyr(3S-OH,4S-OH,3'-OSO3H)][Gln(3R-OH)][Pro(3S-OH,4S-Me)]; lactam 1-C), the figures for the AC50 (at Adenosine receptor A3; in experiment [1]) were 11.4 µM and > 30 µM, respectively.
The matching figures for `CCOc1ccc2ccccc2c1C(=O)N[C@@H]1C(=O)N2[C@@H]1SC(C)(C)[C@@H]2C(=O)O` [NAFCILLIN]: > 30 µM and > 30 µM.
As to `CCCCCCCCCCC[C@@H](C[C@@H]1OC(=O)[C@H]1CCCCCC)OC(=O)[C@H](CC(C)C)NC=O` [ORLISTAT], the AC50 (on Adenosine receptor A3; in experiment [1]) was > 30 µM each time.
Consider `O=C1[C@H]2CCCC[C@H]2C(=O)N1CCCCN1CCN(c2nsc3ccccc23)CC1` [PEROSPIRONE], for which the AC50 on Adenosine receptor A3 is > 30 µM; in experiment [1], 3.73 µM.
On to `CN(C)CCC(c1ccccc1)c1ccccn1` (centres undefined) [PHENIRAMINE], for which the AC50 at Adenosine receptor A3 is > 30 µM; in experiment [1], 7.98 µM.
Turning to `CNC[C@H](O)c1cccc(O)c1` [PHENYLEPHRINE], the AC50 (in experiment [2]; in [3]; on Histamine H2 receptor; in experiment [4]; in experiment [5]; in experiment [6]) was > 10 µM throughout. The AC50 is > 30 µM at Adenosine receptor A3; > 30 µM in experiment [1]; > 30 µM in experiment [7]; > 10 µM at Histamine H3 receptor; > 30 µM at B2 bradykinin receptor.
Consider `CC(C)COc1ccc(CNC(=O)N(Cc2ccc(F)cc2)C2CCN(C)CC2)cc1` [PIMAVANSERIN], for which the AC50 (on Adenosine receptor A3; in experiment [1]) was > 30 µM in each case.
`CC(C)(C)C(=O)NCCCC(=O)O` [PIVAGABINE]: the AC50 (at Adenosine receptor A3; in experiment [1]) was > 30 µM in each case.
As for `CC(C)[N+](C)(CCOC(=O)C1c2ccccc2Oc2ccccc21)C(C)C` [PROPANTHELINE], the AC50 (on Adenosine receptor A3; in [1]) was > 30 µM each time.
As to `CN(C)C(=O)c1nc(CNC(=O)CN)n(-c2ccc(Cl)cc2C(=O)c2ccccc2Cl)n1` [RILMAZAFONE], the AC50 (at Adenosine receptor A3; in experiment [1]) was > 30 µM in each case.
Take `NC(=O)NS(=O)(=O)c1ccc(N)cc1` [SULFACARBAMIDE]: the AC50 (on Adenosine receptor A3; in experiment [1]) was > 30 µM throughout.
For `NCCc1ccc(O)cc1` [TYRAMINE], the AC50 (on Adenosine receptor A3; in experiment [1]) was > 30 µM in each case.
For `CCCCCCCCCCCCCCCC(=O)OC/C=C(C)/C=C/C=C(C)/C=C/C1=C(C)CCCC1(C)C` [VITAMIN A PALMITATE], the AC50 at Adenosine receptor A3 is 11.6 µM; in experiment [1], > 30 µM.
